These results are taken from patent US20070275967A1, “Pyrazolinols” (BAYER CROPSCIENCE AKTIENGESELLSCHAFT, priority 2003, published 2007).

The test system of one data set is Meloidogyne incognita. Briefly: Meloidogyne test (nematicidal action by gall formation on lettuce roots). The class given is in vivo. To be noted: for nematicidal action (formation of galls): Meloidogyne incognita egg/larvae suspension, lettuce, sand, result in words; for pest or weed control at 20 ppm: Meloidogyne incognita, 336 h, active compound concentration 20 ppm, after 14 d, nematicidal action by gall formation, read-out: Effect in % after 14 d. As for the experimental part:
Meloidogyne Test [table] To produce a suitable preparation of active compound, 1 part by weight of active compound is mixed with the stated amounts of solvent and emulsifier, and the concentrate is diluted with water to the desired concentration. Containers are filled with sand, solution of active compound, Meloidogyne incognita egg/larvae suspension and lettuce seeds. The lettuce seeds germinate and the plants develop. On the roots, galls are formed. After the desired period of time, the nematicidal action is determined in % by the formation of galls. 100% means that no galls were found; 0% means that the number of galls on the treated plants corresponds to that of the untreated control.

Data set [1] in a line: logP determination by HPLC on reversed-phase column (EEC Directive 79/831 Annex V.A8). The class given is physicochemical. To be noted: reversed-phase C18 HPLC column; acidic range (pH 2.3), marked a); 0.1% aqueous phosphoric acid/acetonitrile gradient; reversed-phase C 18; 43° C. The procedure, abridged: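 Reversed-phase C18 HPLC at 43° C with 10–90% acetonitrile linear gradient, run at pH 2.3 (0.1% phosphoric acid) or pH 7.5 (0.01-molar phosphate buffer). logP derived from retention times by linear interpolation against unbranched alkan-2-ones (C3–C16) of known logP.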

The test system of data set [2] is caterpillars of the armyworm (Spodoptera frugiperda). Briefly: Spodoptera frugiperda test (spray treatment). It is filed as in vivo. The settings on record: for pest or weed control at 500 g/ha: Spodoptera frugiperda, 168 h, active compound concentration 500 g/ha, after 7 d, spray treatment, read-out: Kill rate in % after 7 d; for activity (kill of caterpillars): corn leaf disks sprayed, populated with Spodoptera frugiperda caterpillars, result in words. Here is the method:
Spodoptera Frugiperda Test (Spray Treatment) [table] To produce a suitable preparation of active compound, 1 part by weight of active compound is mixed with, the stated amounts of solvents and emulsifier, and the concentrate is diluted with emulsifier-containing water to the desired concentration. Disks of corn leaves (Zea mays) are sprayed with a preparation of active compound of the desired concentration and, after they have dried, populated with caterpillars of the armyworm (Spodoptera frugiperda). After the desired period of time, the activity in % is determined. 100% means that all caterpillars have been killed; 0% means that none of the caterpillars have been killed.

In data set [3] the test system is larvae of the mustard beetle (Phaedon cochleariae). Put plainly: Phaedon test (spray treatment). It is filed as in vivo. To be noted: for activity (kill of beetle larvae): Chinese cabbage disks sprayed, populated with Phaedon cochleariae larvae, result in words; for pest or weed control at 500 g/ha: Phaedon cochleariae, 168 h, active compound concentration 500 g/ha, after 7 d, spray treatment, read-out: Kill rate in % after 7 d. Here is the method:
(§1) Phaedon Test (Spray Treatment) [table] To produce a suitable preparation of active compound, 1 part by weight of active compound is mixed with the stated amounts of solvents and emulsifier, and the concentrate is diluted with emulsifier-containing water to the desired concentration. Disks of Chinese cabbage (Brassica pekinensis) are sprayed with a preparation of active compound of the desired concentration and, once they have dried, populated with larvae of the mustard beetle (Phaedon cochleariae). After the desired period of time, the activity in % is determined. 100% means that all beetle larvae have been killed; 0% means that none of the beetle larvae have been killed.

The test system of data set [4] is green peach aphid (Myzus persicae). Put plainly: Myzus test (spray treatment). It is filed as in vivo. To be noted: for activity (kill of aphids): Chinese cabbage disks infested by all stages of Myzus persicae, sprayed, result in words; for pest or weed control at 500 g/ha: Myzus persicae, 120 h, active compound concentration 500 g/ha, after 5 d, spray treatment, read-out: Kill rate in % after 5 d. Here is the method: as §1, with “Myzus” for “Phaedon”, “pekinensis) which are infested by all stages of the green peach aphid (Myzus persicae)” for “pekinensis)”, “concentration.” for “concentration and, once they have dried, populated with larvae of the mustard beetle (Phaedon cochleariae).”, “aphids” for “beetle larvae”

Data set [5] deals with greenhouse red spidermite (Tetranychus urticae). Put plainly: Tetranychus test (OP-resistant/spray treatment). It is filed as in vivo. The settings on record: for pest or weed control at 100 g/ha / pest or weed control at 500 g/ha: Tetranychus urticae, 120 h, after 5 d, OP-resistant, spray treatment, read-out: Kill rate in % after 5 d; for pest or weed control at 100 g/ha: active compound concentration 100 g/ha; for activity (kill of spidermites): bean leaf disks infested by all stages of Tetranychus urticae (OP-resistant), sprayed, result in words; for pest or weed control at 500 g/ha: active compound concentration 500 g/ha. As for the experimental part:
Tetranychus Test (OP-Resistant/Spray Treatment)
To produce a suitable preparation of active compound, 1 part by weight of active compound is mixed with the stated amounts of solvents and emulsifier, and the concentrate is diluted with emulsifier-containing water to the desired concentration.
Disks of bean leaves (Phaseolus vulgaris) which are infested by all stages of the greenhouse red spidermite (Tetranychus urticae) are sprayed with a preparation of active compound of the desired concentration.
After the desired period of time, the activity in % is determined. 100% means that all spidermites have been killed; 0% means that none of the spidermites have been killed.

Data set [6] concerns Adults of Ctenocephalides felis. Briefly: Test with cat fleas/oral uptake. It is filed as in vivo. To be noted: for Kill rate in % after 2 d: active compound concentration 100 ppm, oral uptake; for mortality of fleas: oral uptake from citrated cattle blood, at least 75% kill within 48 h judged effective, result in words. Here is the method: Test with Cat Fleas/Oral Uptake
Ctenocephalides Felis (Oral)
To produce a suitable formulation, a suitable solution of active compound is prepared from 10 mg of active compound and 0.5 ml of DMSO. 10 μl of this formulation are added to 2 ml of citrated cattle blood and stirred.
20 unfed adult fleas (Ctenocephalides felis, strain “Georgi”) are placed into a chamber (Ø 5 cm) whose top and bottom are closed with gauze. A metal cylinder whose underside is covered with parafilm is placed onto the chamber. The cylinder contains the 2 ml of blood/active compound formulation which can be taken up by the fleas through the parafilm membrane. Whereas the blood is warmed to 37° C., the temperature in the area of the flea chambers is adjusted to room temperature. Controls are mixed with the same volume of DMSO, without addition of a compound.
After 24 h and 48 h, the mortality in % is determined.
Compounds which effect an at least 75% kill of the fleas within 48 h are judged to be effective.

What is called chromatographic logP is lipophilicity estimated from chromatographic retention. Read a low chromatographic logP as lower lipophilicity.

Each structure is given as a SMILES string.

With `CC(C)C1=NN(C(=S)NCCN2CCOCC2)C(O)(C(F)(F)F)C1` (stereo not drawn) [Example 43], in the data set with Meloidogyne incognita, the “nematicidal action (formation of galls)” value is on record as “good activity” and the pest or weed control at 20 ppm worked out at 100%. Moreover, in data set [1], the chromatographic logP came out at 1.45.

As for `CC1=NN(C(=O)Nc2ccc(C(F)(F)F)cc2)C(O)(C(F)(F)F)C1` (stereo not drawn) [Example 115], in the data set with Meloidogyne incognita, the “nematicidal action (formation of galls)” value is given as “good activity” and the pest or weed control at 20 ppm came out at 100%. The chromatographic logP in data set [1] is 3.26.

For the compound `CC1=NN(C(=S)Nc2c(F)cccc2F)C(O)(C(F)(F)F)C1` (stereo not drawn) [Example 100], in the data set on Meloidogyne incognita, the “nematicidal action (formation of galls)” value is recorded as “good activity” and the pest or weed control at 20 ppm is 90%. In data set [1], the chromatographic logP is 2.91.

Take `COc1ccc(NC(=S)N2N=C(C(C)C)CC2(O)C(F)(F)F)cc1` (stereo not drawn) [Example 19]: in the data set on Meloidogyne incognita, the “nematicidal action (formation of galls)” value is “good activity” and the pest or weed control at 20 ppm was found to be 100%. The chromatographic logP in data set [1] came to 3.83.

For the compound `CC(C)C1=NN(C(=S)Nc2ccccc2F)C(O)(C(F)(F)F)C1` (stereo not drawn) [Example 1, N-(2-fluorophenyl)-5-hydroxy-3-(i-propyl)-5-trifluoromethyl-4,5-dihydro-1H-pyrazole-1-carbothioamide], in data set [2], the pest or weed control at 500 g/ha is 100% and the “activity (kill of caterpillars)” value is “good activity”. Besides, in data set [3], the “activity (kill of beetle larvae)” value is given as “good activity” and the pest or weed control at 500 g/ha was found to be 100%. In data set [4], the “activity (kill of aphids)” value is “good activity” and the pest or weed control at 500 g/ha came to 100%. Besides, in data set [5], the pest or weed control at 100 g/ha worked out at 90% and the “activity (kill of spidermites)” value is reported as “good activity”. The chromatographic logP in data set [1] amounted to 3.86.

For the compound `CC1=NN(C(=O)Nc2ccc(Cl)cc2)C(O)(C(F)(F)F)C1` (stereo not drawn) [Example 114], in the data set on Meloidogyne incognita, the “nematicidal action (formation of galls)” value was “good activity” and the pest or weed control at 20 ppm came to 90%. Moreover, the chromatographic logP in data set [1] was found to be 3.

In the case of `CC1=NN(C(=S)Nc2ccc(Cl)cc2)C(O)(C(F)(F)F)C1` (stereo not drawn) [Example 122], in the data set on Meloidogyne incognita, the “nematicidal action (formation of galls)” value is reported as “good activity” and the pest or weed control at 20 ppm turned out to be 90%.

As for `CC(C)C1=NN(C(=S)Nc2ccc(Cl)cc2Cl)C(O)(C(F)(F)F)C1` (stereo not drawn) [Example 34], in data set [3], the “activity (kill of beetle larvae)” value is recorded as “good activity” and the pest or weed control at 500 g/ha was determined as 100%. In data set [5], the pest or weed control at 500 g/ha came to 100% and the “activity (kill of spidermites)” value is listed as “good activity”. In data set [6], the “Kill rate in % after 2 d” value is 100% and the mortality of fleas result is listed as “good activity”. In addition, the chromatographic logP in data set [1] was 4.91.

Consider `CC(C)C1=NN(C(=S)Nc2ccccc2)C(O)(C(F)(F)F)C1` (stereo not drawn) [Example 27], for which, in data set [2], the pest or weed control at 500 g/ha is 100% and the “activity (kill of caterpillars)” value was “good activity”. Besides, in data set [3], the “activity (kill of beetle larvae)” value was “good activity” and the pest or weed control at 500 g/ha came out at 100%. For the same compound, in data set [4], the “activity (kill of aphids)” value is on record as “good activity” and the pest or weed control at 500 g/ha was 100%. Moreover, in data set [5], the pest or weed control at 100 g/ha turned out to be 90% and the “activity (kill of spidermites)” value was “good activity”. In data set [1], the chromatographic logP came out at 3.9.

On to `CC(C)C1=NN(C(=S)Nc2c(Cl)cccc2Cl)C(O)(C(F)(F)F)C1` (stereo not drawn) [Example 29], for which, in data set [2], the pest or weed control at 500 g/ha is 100% and the “activity (kill of caterpillars)” value is “good activity”. In data set [3], the “activity (kill of beetle larvae)” value is given as “good activity” and the pest or weed control at 500 g/ha was found to be 100%. Moreover, in data set [6], the “Kill rate in % after 2 d” value was determined as 100% and the mortality of fleas entry is given as “good activity”. The same compound had a chromatographic logP in data set [1] of 4.

As for `CC1=NN(C(=S)NCc2ccc(Cl)cc2)C(O)(C(F)(F)F)C1` (stereo not drawn) [Example 123], in the data set on Meloidogyne incognita, the “nematicidal action (formation of galls)” value is “good activity” and the pest or weed control at 20 ppm came out at 90%.

As for `CCC1=NN(C(=S)Nc2ccc(OC)cc2)C(O)(C(F)(F)F)C1` (stereo not drawn) [Example 14], in the data set with Meloidogyne incognita, the “nematicidal action (formation of galls)” value is recorded as “good activity” and the pest or weed control at 20 ppm was 100%. This compound also returned a chromatographic logP in data set [1] of 3.47.

Consider `CC(C)C1=NN(C(=S)NCc2ccccc2Cl)C(O)(C(F)(F)F)C1` (stereo not drawn) [Example 42], for which, in data set [2], the pest or weed control at 500 g/ha came out at 100% and the “activity (kill of caterpillars)” value is on record as “good activity”. Moreover, in data set [3], the “activity (kill of beetle larvae)” value is on record as “good activity” and the pest or weed control at 500 g/ha was 100%. In data set [4], the “activity (kill of aphids)” value is on record as “good activity” and the pest or weed control at 500 g/ha is 100%. In addition, in data set [5], the pest or weed control at 500 g/ha came to 100% and the “activity (kill of spidermites)” value is recorded as “good activity”. The compound further showed a chromatographic logP in data set [1] of 4.58.
